# Experimental data reported in patent US10206394B2, “Herbicidal compounds” (Syngenta Participations AG, priority 2014, dated 2019).
# Like-named read-outs stand apart in the source and are kept apart here.
# Key:
# Experiment in all cases: Glasshouse assay for herbicidal activity (pre- and post-emergence), percentage phytotoxicity
# Assay type in all cases: in vivo
# [1] = tested on: Echinochloa crus-galli (ECHCG); details: Echinochloa crus-galli
# Procedure, shortened: (§1)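 Seeds were sown in standard soil in pots and grown one day (pre-emergence) or about 12 days (post-emergence) before herbicide application. Plants were kept at 24/18 °C (warm-climate) or 20/16 °C (cool-climate) day/night, 16 h light, 65% humidity, watered twice daily, and damage was scored visually at 15 DAA (POST) or 20 DAA (PRE).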
# Avena fatua (AVEFA) = details: Avena fatua
# Procedure, shortened: as §1
# Lolium perenne (LOLPE) = details: Lolium perenne
# Procedure, shortened: as §1
# [2] = tested on: Alopecurus myosuroides (ALOMY); details: Alopecurus myosuroides
# Procedure, shortened: as §1
# [3] = post-emergence, 360 h, Rate 250 g/ha, post-emergence, visual assessment 15 DAA, 100%=total damage, 0%=no damage, read-out: Post-emergence herbicidal activity (percentage phytotoxicity) ECHCG POST
# [4] = pre-emergence, 480 h, Rate 250 g/ha, pre-emergence, visual assessment 20 DAA, 100%=total damage, 0%=no damage, read-out: Pre-emergence herbicidal activity (percentage phytotoxicity) ECHCG PRE
# [5] = post-emergence, 360 h, Rate 250 g/ha, post-emergence, visual assessment 15 DAA, 100%=total damage, 0%=no damage, read-out: Post-emergence herbicidal activity (percentage phytotoxicity) AVEFA POST
# [6] = pre-emergence, 480 h, Rate 250 g/ha, pre-emergence, visual assessment 20 DAA, 100%=total damage, 0%=no damage, read-out: Pre-emergence herbicidal activity (percentage phytotoxicity) AVEFA PRE
# [7] = post-emergence, 360 h, Rate 250 g/ha, post-emergence, visual assessment 15 DAA, 100%=total damage, 0%=no damage, read-out: Post-emergence herbicidal activity (percentage phytotoxicity) LOLPE POST
# [8] = pre-emergence, 480 h, Rate 250 g/ha, pre-emergence, visual assessment 20 DAA, 100%=total damage, 0%=no damage, read-out: Pre-emergence herbicidal activity (percentage phytotoxicity) LOLPE PRE
# [9] = post-emergence, 360 h, Rate 250 g/ha, post-emergence, visual assessment 15 DAA, 100%=total damage, 0%=no damage, read-out: Post-emergence herbicidal activity (percentage phytotoxicity) ALOMY POST
# [10] = pre-emergence, 480 h, Rate 250 g/ha, pre-emergence, visual assessment 20 DAA, 100%=total damage, 0%=no damage, read-out: Pre-emergence herbicidal activity (percentage phytotoxicity) ALOMY PRE
# [11] = post-emergence, 360 h, POST-emergence, rate 250 g/ha, visual score 15 DAA (100%=total damage, 0%=no damage), read-out: Post-emergence herbicidal activity (percentage phytotoxicity) ECHCG POST
# [12] = pre-emergence, 480 h, PRE-emergence, rate 250 g/ha, visual score 20 DAA (100%=total damage, 0%=no damage), read-out: Pre-emergence herbicidal activity (percentage phytotoxicity) ECHCG PRE
# [13] = post-emergence, 360 h, POST-emergence, rate 250 g/ha, visual score 15 DAA (100%=total damage, 0%=no damage), read-out: Post-emergence herbicidal activity (percentage phytotoxicity) AVEFA POST
# [14] = pre-emergence, 480 h, PRE-emergence, rate 250 g/ha, visual score 20 DAA (100%=total damage, 0%=no damage), read-out: Pre-emergence herbicidal activity (percentage phytotoxicity) AVEFA PRE
# [15] = post-emergence, 360 h, POST-emergence, rate 250 g/ha, visual score 15 DAA (100%=total damage, 0%=no damage), read-out: Post-emergence herbicidal activity (percentage phytotoxicity) LOLPE POST
# [16] = pre-emergence, 480 h, PRE-emergence, rate 250 g/ha, visual score 20 DAA (100%=total damage, 0%=no damage), read-out: Pre-emergence herbicidal activity (percentage phytotoxicity) LOLPE PRE
# [17] = post-emergence, 360 h, POST-emergence, rate 250 g/ha, visual score 15 DAA (100%=total damage, 0%=no damage), read-out: Post-emergence herbicidal activity (percentage phytotoxicity) ALOMY POST
# [18] = pre-emergence, 480 h, PRE-emergence, rate 250 g/ha, visual score 20 DAA (100%=total damage, 0%=no damage), read-out: Pre-emergence herbicidal activity (percentage phytotoxicity) ALOMY PRE
SMILES,"pest or weed control at 250 g/ha [1, 3]","pest or weed control at 250 g/ha [1, 4]",pest or weed control at 250 g/ha (Avena fatua (AVEFA); [5]),pest or weed control at 250 g/ha (Avena fatua (AVEFA); [6]),pest or weed control at 250 g/ha (Lolium perenne (LOLPE); [7]),pest or weed control at 250 g/ha (Lolium perenne (LOLPE); [8]),"pest or weed control at 250 g/ha [2, 9]","pest or weed control at 250 g/ha [2, 10]","pest or weed control at 250 g/ha [1, 11]","pest or weed control at 250 g/ha [1, 12]",pest or weed control at 250 g/ha (Avena fatua (AVEFA); [13]),pest or weed control at 250 g/ha (Avena fatua (AVEFA); [14]),pest or weed control at 250 g/ha (Lolium perenne (LOLPE); [15]),pest or weed control at 250 g/ha (Lolium perenne (LOLPE); [16]),"pest or weed control at 250 g/ha [2, 17]","pest or weed control at 250 g/ha [2, 18]",also measured
Cc1cc(-c2ccc(Cl)cn2)cc(C)c1C1C(=O)CC(CC(=O)NCc2cccs2)C1=O (stereo not drawn) [Compound B373],100%,100%,100%,80%,80%,100%,80%,70%,–,–,–,–,–,–,–,–,–
COCC(C)(C)NC(=O)CC1CC(=O)C(c2c(C)cc(-c3ncc(F)cn3)cc2C)C1=O (stereo not drawn) [Compound B327],–,–,–,–,–,–,–,–,100%,100%,100%,80%,90%,100%,100%,100%,–
Cc1cc(Br)cc(C)c1C1C(=O)CC(CC(=O)NC/C=C/Cl)C1=O (stereo not drawn) [Compound B176],–,–,–,–,–,–,–,–,80%,80%,80%,60%,80%,90%,80%,90%,–
Cc1cc(-c2ccc(C#N)cn2)cc(C)c1C1C(=O)CC(CC(=O)N2CCOCC2)C1=O (stereo not drawn) [Compound B321],–,–,–,–,–,–,–,–,100%,100%,100%,80%,90%,90%,90%,70%,–
Cc1cc(-c2ncc(Cl)cn2)cc(C)c1C1C(=O)CC(CC(=O)NCc2cccc(Cl)c2)C1=O (stereo not drawn) [Compound B354],100%,90%,100%,80%,90%,80%,90%,70%,–,–,–,–,–,–,–,–,–
Cc1cc(C)c(C2C(=O)CC(CC(=O)NCc3cc(C)nn3C)C2=O)c(C)c1 (stereo not drawn) [Compound A84],–,–,–,–,–,–,–,–,–,–,–,–,–,–,–,–,"pest or weed control at 250 g/ha ([1]; post-emergence, 360 h, Rate 250 g/ha, post-emergence, assessed visually 15 DAA, 100%=total damage, 0%=no damage, read-out: Post-emergence herbicidal activity (percentage phytotoxicity) ECHCG POST): 70%; pest or weed control at 250 g/ha ([1]; pre-emergence, 480 h, Rate 250 g/ha, pre-emergence, assessed visually 20 DAA, 100%=total damage, 0%=no damage, read-out: Pre-emergence herbicidal activity (percentage phytotoxicity) ECHCG PRE): 0%; pest or weed control at 250 g/ha (Avena fatua (AVEFA); post-emergence, 360 h, Rate 250 g/ha, post-emergence, assessed visually 15 DAA, 100%=total damage, 0%=no damage, read-out: Post-emergence herbicidal activity (percentage phytotoxicity) AVEFA POST): 20%; pest or weed control at 250 g/ha (Avena fatua (AVEFA); pre-emergence, 480 h, Rate 250 g/ha, pre-emergence, assessed visually 20 DAA, 100%=total damage, 0%=no damage, read-out: Pre-emergence herbicidal activity (percentage phytotoxicity) AVEFA PRE): 0%; pest or weed control at 250 g/ha (Lolium perenne (LOLPE); post-emergence, 360 h, Rate 250 g/ha, post-emergence, assessed visually 15 DAA, 100%=total damage, 0%=no damage, read-out: Post-emergence herbicidal activity (percentage phytotoxicity) LOLPE POST): 20%; pest or weed control at 250 g/ha (Lolium perenne (LOLPE); pre-emergence, 480 h, Rate 250 g/ha, pre-emergence, assessed visually 20 DAA, 100%=total damage, 0%=no damage, read-out: Pre-emergence herbicidal activity (percentage phytotoxicity) LOLPE PRE): 10%; pest or weed control at 250 g/ha ([2]; post-emergence, 360 h, Rate 250 g/ha, post-emergence, assessed visually 15 DAA, 100%=total damage, 0%=no damage, read-out: Post-emergence herbicidal activity (percentage phytotoxicity) ALOMY POST): 60%; pest or weed control at 250 g/ha ([2]; pre-emergence, 480 h, Rate 250 g/ha, pre-emergence, assessed visually 20 DAA, 100%=total damage, 0%=no damage, read-out: Pre-emergence herbicidal activity (percentage phytotoxicity) ALOMY PRE): 40%"
